Measurements from article PMC3163123 (Bioorganic & medicinal chemistry, 2011).

Experiments:
[1] = target: T1, recombinant wild-type HIV-1 IN (Human immunodeficiency virus type 1 group M subtype B, UniProt P12497); assay: biochemical; type: biochemical
[2] = target: T1, recombinant wild-type HIV-1 IN; assay: Integrase catalytic activity assay, 3′-processing; type: biochemical
H630 colon cancer cells = assay: MTT cytotoxicity assay; type: cell-based; details: at the concentration of up to 40 μM

SMILES | IC50 [1] [µM] | IC50 [2] [µM] | also measured
Nc1cccc(C(=O)NCc2ccco2)c1O [Compound 6d, 3-Amino-N-(furan-2-ylmethyl)-2-hydroxybenzamide] | > 100 | > 100 | IN / strand transfer inhibitory potency [1]: severe loss of potency
O=C(O)c1c(O)cccc1OCc1ccc(F)cc1 [Compound 3i, 2-(4-Fluorobenzyloxy)-6-hydroxybenzoic acid] | > 100 | > 100 | –
O=C(NCc1cccs1)c1cc(S(=O)(=O)N2CCCCC2)cc(O)c1O [Compound 5v, N-(Thiophen-2-ylmethyl)-2,3-dihydroxy-5-(piperidin-1-ylsulfonyl)benzamide] | – | > 100 | –
O=C(NCc1ccc(F)c(F)c1)c1cccc(O)c1O [Compound 5d, N-(3,4-Difluorobenzyl)-2,3-dihydroxybenzamide] | – | > 100 | –
CNS(=O)(=O)c1cc(O)c(O)c(C(=O)NCc2ccc(F)cc2)c1 [Compound 5q, N-(4-Fluorobenzyl)-2,3-dihydroxy-5-(N-methylsulfamoyl)benzamide] | – | > 100 | –
O=C(NO)c1ccc(OCc2ccc(F)cc2)cc1O [Compound 4b, 4-(4-fluorobenzyloxy)-N,2-dihydroxybenzamide] | – | > 100 | –
O=C(NO)c1c(O)cccc1OCc1ccc(F)cc1 [Compound 4d, 2-(4-fluorobenzyloxy)-N,6-dihydroxybenzamide] | – | > 100 | –
O=C(NC1CCCCC1)c1cccc(O)c1O [Compound 5l, N-Cyclohexyl-2,3-dihydroxybenzamide] | > 100 | > 100 | –
O=C(NCc1ccc(-c2cccs2)cc1)c1cccc(O)c1O [Compound 5j, 2,3-Dihydroxy-N-(4-(thiophen-2-yl)benzyl)benzamide] | – | > 100 | –
O=C(O)c1ccc(OCc2ccc(F)cc2)cc1O [Compound 3e, 4-(4-Fluorobenzyloxy)-2-hydroxybenzoic acid] | > 100 | > 100 | –
O=C(NCC1CCCCC1)c1cccc(O)c1O [Compound 5m, N-(Cyclohexylmethyl)-2,3-dihydroxybenzamide] | – | > 100 | –
O=C(NCc1ccc(F)cc1)c1cccc(OCc2ccccc2)c1O [Compound 5b, 3-(Benzyloxy)-N-(4-fluorobenzyl)-2-hydroxybenzamide] | – | > 333 | cytotoxicity in H630 cells (H630 colon cancer cells): not cytotoxic
O=C(O)c1c(O)cccc1OCc1ccccc1 [Compound 3h, 2-(Benzyloxy)-6-hydroxybenzoic acid] | > 100 | > 100 | –
O=C(NCc1ccc(F)cc1)c1cc(S(=O)(=O)N2CCCCC2)cc(O)c1O [Compound 5p, N-(4-Fluoro-benzyl)-2,3-dihydroxy-5-(piperidine-1-sulfonyl)-benzamide] | – | – | selectivity for the strand transfer over the 3′-processing reaction ([1]; ratio of IC50 values): more than 40 fold
O=C(NCc1ccco1)c1cc(S(=O)(=O)N2CCCCC2)cc(O)c1O [Compound 5s, N-(Furan-2-ylmethyl)-2,3-dihydroxy-5-(piperidin-1-ylsulfonyl)benzamide] | – | > 100 | –
O=C(O)c1cc(OCc2ccc(F)cc2)ccc1O [Compound 3g, 5-(4-Fluorobenzyloxy)-2-hydroxybenzoic acid] | > 100 | > 100 | –
COc1cc(S(=O)(=O)N2CCCCC2)cc(C(=O)NCc2ccco2)c1O [Compound 6c, N-(Furan-2-ylmethyl)-2-hydroxy-3-methoxy-5-(piperidin-1-ylsulfonyl)benzamide] | > 100 | > 100 | IN / strand transfer inhibitory potency [1]: severe loss of potency

SMILES | IC50 [1] [µM] | IC50 [2] [µM] | also measured
O=C(NCc1cccc2ccccc12)c1cccc(O)c1O [Compound 5c, 2,3-Dihydroxy-N-(naphthalen-1-ylmethyl)benzamide] | – | > 100 | –
O=C(O)c1cccc(OCc2ccc(F)cc2)c1O [Compound 3b, 3-(4-Fluorobenzyloxy)-2-hydroxybenzoic acid] | > 100 | > 100 | –
O=C(O)c1ccc(OCc2ccccc2)cc1O [Compound 3d, 4-(Benzyloxy)-2-hydroxybenzoic acid] | > 100 | > 100 | –
CN(C)Cc1ccc(C(=O)NCc2ccc(F)cc2)c(O)c1O [Compound 6a, 4-((Dimethylamino)methyl)-N-(4-fluorobenzyl)-2,3-dihydroxybenzamide] | – | > 100 | –
O=C(Nc1ccc2[nH]ccc2c1)c1cccc(O)c1O [Compound 5g, 2,3-Dihydroxy-N-(1H-indol-5-yl)benzamide] | – | > 100 | –
O=C(NO)c1cc(OCc2ccc(F)cc2)ccc1O [Compound 4c, 5-(4-fluorobenzyloxy)-N,2-dihydroxybenzamide] | – | > 100 | –
O=C(O)c1cc(OCc2ccccc2)ccc1O [Compound 3f, 5-(Benzyloxy)-2-hydroxybenzoic acid] | > 100 | > 100 | –
CN(C)Cc1ccc(C(=O)NCc2ccco2)c(O)c1O [Compound 6b, 4-((Dimethylamino)methyl)-N-(furan-2-ylmethyl)-2,3-dihydroxybenzamide] | – | > 100 | –
O=C(NO)c1cccc(OCc2ccc(F)cc2)c1O [Compound 4a, 3-(4-fluorobenzyloxy)-N,2-dihydroxybenzamide] | > 100 | > 100 | –
O=C(O)c1c(O)cccc1OCc1ccc2ccccc2c1 [Compound 3j, 2-((Naphthalen-2-yl)methoxy)-6-hydroxybenzoic acid] | – | > 100 | –
CS(=O)(=O)Nc1cc(O)c(O)c(C(=O)NCc2ccc(F)cc2)c1 [Compound 5w, N-(4-Fluorobenzyl)-2,3-dihydroxy-5-(methylsulfonamido)benzamide] | – | > 100 | –
O=C(O)c1cccc(OCc2ccccc2)c1O [Compound 3a, 3-(Benzyloxy)-2-hydroxybenzoic acid] | > 100 | > 100 | –
O=C(NC1CCNCC1)c1cccc(O)c1O [Compound 5k, 2,3-Dihydroxy-N-(piperidin-4-yl)benzamide] | > 100 | > 100 | –
CNC(=O)Cc1ccccc1CNC(=O)c1cccc(O)c1O [Compound 5n, 2,3-Dihydroxy-N-(2-(2-(methylamino)-2-oxoethyl)benzyl)benzamide] | – | > 100 | –
CNC(=O)c1cc(F)ccc1CNC(=O)c1cccc(O)c1O [Compound 5o, N-(4-Fluoro-2-(methylcarbamoyl)benzyl)-2,3-dihydroxybenzamide] | – | > 100 | IN / strand transfer inhibitory potency [1]: loss of IN inhibitory potency
O=C(O)c1cccc(OCc2ccc3ccccc3c2)c1O [Compound 3c, 3-((Naphthalen-2-yl)methoxy)-2-hydroxybenzoic acid] | – | > 100 | –
O=C(NCc1ccc(F)cc1)c1cccc(O)c1O [Compound 5a, N-(4-Fluorobenzyl)-2,3-dihydroxybenzamide] | – | – | cytotoxicity in H630 cells (H630 colon cancer cells): not cytotoxic
